From the RepoRT retention time repository (doi:10.1016/j.foodchem.2021.129757)

Key:
Conditions in all cases: stereoisomer not certain
[1] = RP, Agilent ZORBAX RRHD Eclipse Plus C18, 50 × 2.1 mm, 1.8 µm, 30 °C, 0.4 mL/min, estimated dead time 0.28 min; A: water + 0.1% formic acid, pH 3; B: acetonitrile + 0.1% formic acid, pH 3; gradient (min/%B) 0/1 5/10 8/25 9.1/99 10/99 12/99
[2] = RP, Agilent ZORBAX RRHD Eclipse Plus C18, 50 × 2.1 mm, 1.8 µm, 30 °C, 0.4 mL/min, estimated dead time 0.28 min; A: water + 0.1% formic acid, pH 3; B: acetonitrile + 0.1% formic acid, pH 3; gradient (min/%B) 0/1 5/10 8/25 9.1/99 10/99 12/1
[3] = RP, Phenomenex Kinetex EVO C18, 100 × 2.1 mm, 2.6 µm, 40 °C, 0.4 mL/min, estimated dead time 0.55 min; A: water + 0.2% formic acid; B: acetonitrile + 0.2% formic acid; gradient (min/%B) 0/5 0.5/5 7/95 8/95 8.5/5 12/5
[4] = RP, Agilent InfinityLab Poroshell 120 EC-C18, 100 × 3 mm, 2.7 µm, 25 °C, 0.4 mL/min, estimated dead time 1.1 min; A: water + 0.1% formic acid, pH 3; B: acetonitrile + 0.1% formic acid, pH 3; gradient (min/%B) 0/5 10/25 20/40 24/90 25/90 26/5 30/5
[5] = RP, Phenomenex Synergi Hydro-RP, 250 × 2 mm, 4 µm, 25 °C, 0.2 mL/min, estimated dead time 2.5 min; A: water + 0.1% formic acid, pH 3; B: acetonitrile + 0.1% formic acid, pH 3; gradient (min/%B) 0/0.5 7/0.5 12/12.5 25/16.3 47/35 48/65 50/65 50.1/0.5
[6] = RP, Waters Atlantis T3, 100 × 2.1 mm, 3 µm, 40 °C, 0.3 mL/min, estimated dead time 0.73 min; A: water + 0.1% trifluoroacetic acid, pH 2; B: acetonitrile + 0.1% trifluoroacetic acid, pH 2; gradient (min/%B) 0/10 1/10 6/40 7/50 8/50 14/70 16/80 20/10 25/10
[7] = RP, Waters ACQUITY UPLC HSS T3, 100 × 2.1 mm, 1.8 µm, 30 °C, 0.4 mL/min, estimated dead time 0.55 min; A: water + 0.1% formic acid, pH 3; B: acetonitrile + 0.1% formic acid, pH 3; gradient (min/%B) 0/0 2/0 15/100 22/100 22.1/0 26/0
[8] = RP, Waters ACQUITY UPLC HSS T3, 100 × 2.1 mm, 50 °C; A: water + 0.1% formic acid, pH 3; B: 30% methanol + 70% acetonitrile + 0.1% formic acid, pH 3; gradient (min/%B) 0/5 1/8 2/15 3/40 4/70 4.5/100 5/100 6.4/100 6.6/5 6.8/5 7/5
[9] = RP, Waters ACQUITY UPLC BEH C18, 100 × 2.1 mm, 1.7 µm, 65 °C, 0.4 mL/min, estimated dead time 0.55 min; A: water + 0.1% formic acid, pH 3; B: 80% acetonitrile + 20% acetone + 0.1% formic acid, pH 3; gradient (min/%B) 0/0 5/100 5.5/0 6/0
[10] = RP, 150 × 2.1 mm, 2.6 µm, 40 °C, 0.35 mL/min, estimated dead time 0.94 min; A: water + 0.1% formic acid, pH 3; B: acetonitrile + 0.1% formic acid, pH 3; gradient (min/%B) 0/0 1/0 12.5/100 14/100 14.2/0 15/0
[11] = RP, 150 × 2.1 mm, 2.6 µm, 40 °C, 0.35 mL/min, estimated dead time 0.94 min; A: water + 0.1% formic acid, pH 3; B: acetonitrile + 0.1% formic acid, pH 3; gradient (min/%B) 0/0 1/5 7/45 8.5/80 10.5/80 11/5 12/5

| SMILES | LC retention time [1] | LC retention time [2] | LC retention time [3] | also measured |
| --- | --- | --- | --- | --- |
| COc1ccc(C(=O)O)cc1OS(=O)(=O)O [Isovanillic acid-3-O-sulfate] | 3.47 min | 3.98 min | 3.68 min |  |
| COc1ccc(C2CC(=O)c3c(O)cc(O)cc3O2)cc1OC1OC(C(=O)O)C(O)C(O)C1O (stereo not drawn) [Hesperetin 3'-O-glucuronide] |  |  | 5.32 min | LC retention time [4]: 12.2 min |
| COc1ccc(C=CC(=O)O)cc1OC1OC(C(=O)O)C(O)C(O)C1O (stereo not drawn) [Isoferulic acid-3-O-glucuronide] | 6.38 min | 6.36 min | 4.25 min | LC retention time [5]: 34.4 min |
| CC(C)c1cc2c(c(O)c1O)C13CCCC(C)(C)C1C(OC3=O)C2O (stereo not drawn) [Rosmanol] |  |  |  | LC retention time [6]: 11.8 min |
| O=C(O)CCc1cccc(O)c1 [3-(3-hydroxyphenyl)propanoic acid] | 7.28 min | 7.32 min | 4.51 min | LC retention time [5]: 29.5 min; LC retention time [7]: 9.17 min |
| COc1cc(CCC(=O)O)ccc1OS(=O)(=O)O [Dihydroferulic acid-4-O-Sulfate] | 4.05 min | 5.86 min | 4.36 min |  |
| O=Cc1ccc(O)c(O)c1 [3,4-Dihydroxybenzaldehyde] | 3.73 min | 4.12 min | 2.18 min |  |
| CC(C)c1cc2c(c(O)c1O)C1(C(=O)O)CCCC(C)(C)C1CC2 (stereo not drawn) [Carnosic acid] |  |  |  | LC retention time [6]: 15.2 min |
| COc1ccc(C=CC(=O)O)cc1OS(=O)(=O)O [Isoferulic acid 3-O-sulfate] | 5.94 min | 6.76 min | 4.79 min |  |
| COc1cc(C=CC(=O)O)ccc1OS(=O)(=O)O [Ferulic acid 4-O-sulfate] | 4.67 min | 6.22 min | 4.59 min |  |
| COc1cc(O)c(CC=C(C)C)c(O)c1C(=O)C=Cc1ccc(O)cc1 [Xanthohumol] |  |  |  | LC retention time [6]: 15.4 min |
| CC(C)c1cc2c(c(O)c1O)C13CCCC(C)(C)C1CC2OC3=O (stereo not drawn) [Carnosol] |  |  |  | LC retention time [6]: 16.3 min; LC retention time [8]: 4.52 min; LC retention time [9]: 4.02 min |
| COc1ccc(C(=O)O)cc1OC1OC(C(=O)O)C(O)C(O)C1O (stereo not drawn) [Isovanillic acid-3-glucuronide] |  |  | 2.34 min |  |
| CC1OC(OCC2OC(Oc3cc(O)c4c(c3)OC(c3ccc(O)cc3)CC4=O)C(O)C(O)C2O)C(O)C(O)C1O (stereo not drawn) [Narirutin] |  |  |  | LC retention time [6]: 7.65 min |
| Oc1cc(O)c2c(c1)OC(c1ccc(O)c(O)c1)C(O)C2c1c(O)cc(O)c2c1OC(c1ccc(O)c(O)c1)C(O)C2c1c(O)cc(O)c2c1OC(c1ccc(O)c(O)c1)C(O)C2 (stereo not drawn) [Procyanidin C1] |  |  |  | LC retention time [6]: 6.03 min |
| O=C1CC(c2ccc(O)cc2)Oc2cc(OC3OC(C(=O)O)C(O)C(O)C3O)cc(O)c21 (stereo not drawn) [Naringenin-7-O-glucuronide] |  |  | 5.12 min |  |
| COc1cc(C=CC(=O)O)ccc1OC1OC(C(=O)O)C(O)C(O)C1O (stereo not drawn) [Ferulic acid-4-O-glucuronide] | 3.24 min | 4.81 min | 3.62 min |  |
| COc1cc(O)c2c(c1)OC(c1ccc(O)cc1)CC2=O (stereo not drawn) [Sakuranetin] |  |  |  | LC retention time [6]: 12.1 min |
| O=C(O)CCc1ccc(O)c(OC2OC(C(=O)O)C(O)C(O)C2O)c1 (stereo not drawn) [Dihydrocaffeic acid-3-O-glucuronide] | 3.94 min | 5.11 min | 3.22 min |  |
| O=C1CCC(Cc2cc(O)cc(OC3OC(C(=O)O)C(O)C(O)C3O)c2)O1 (stereo not drawn) [5-(5'-Hydroxyphenyl)-gamma-valerolactone-3'-glucuronide] |  |  | 2.34 min |  |
| O=c1c(O)c(-c2ccc(O)cc2)oc2cc(OC3OC(CO)C(O)C(O)C3O)cc(O)c12 (stereo not drawn) [kaempferol-7-O-glucoside] |  |  |  | LC retention time [6]: 7.37 min; LC retention time [5]: 38.3 min |
| O=C1CCC(Cc2cccc(OS(=O)(=O)O)c2)O1 (stereo not drawn) [5-Phenyl-gamma-valerolactone-3'-sulfate] |  |  | 4.96 min |  |
| O=C(O)C=Cc1ccc(OC2OC(C(=O)O)C(O)C(O)C2O)c(O)c1 (stereo not drawn) [Caffeic acid-4-glucuronide] | 1.78 min | 3.98 min | 2.45 min |  |
| COc1ccc(CCC(=O)O)cc1OC1OC(C(=O)O)C(O)C(O)C1O (stereo not drawn) [Dihydro isoferulic acid-3-O-glucuronide] | 6.53 min | 6.49 min | 4.22 min |  |
| COc1cc(O)c(CC=C(C)C)c2c1C(=O)CC(c1ccc(O)cc1)O2 (stereo not drawn) [Isoxanthumol] |  |  |  | LC retention time [6]: 11.1 min |
| CC(C)=CCc1c(O)cc(O)c2c1OC(c1ccc(O)cc1)CC2=O (stereo not drawn) [8-prenylnaringenin] |  |  |  | LC retention time [6]: 12.7 min |
| O=C(O)CNC(=O)c1ccc(O)cc1 [4-Hydroxyhippuric acid] | 1.63 min | 3.19 min | 1.55 min | LC retention time [8]: 2.19 min; LC retention time [10]: 3.82 min; LC retention time [11]: 3.56 min |
| COc1ccc(C2CC(=O)c3c(O)cc(OC4OC(COC5OC(C)C(O)C(O)C5O)C(O)C(O)C4O)cc3O2)cc1 (stereo not drawn) [Didymin] |  |  |  | LC retention time [6]: 9.08 min |
| O=C(O)CCc1ccc(O)c(OS(=O)(=O)O)c1 [Dihydrocaffeic acid-3-O-sulfate] | 2.83 min | 5.08 min | 4.04 min |  |
| O=C1CCC(Cc2cccc(OC3OC(C(=O)O)C(O)C(O)C3O)c2)O1 (stereo not drawn) [5-Phenyl-gamma-valerolactone-3'-glucuronide] |  |  | 4.31 min |  |

Continued, in another order:

| LC retention time [1] | LC retention time [2] | LC retention time [3] | SMILES | also measured |
| --- | --- | --- | --- | --- |
|  |  | 4.85 min | O=C(O)C1OC(Oc2cc(O)cc(C=Cc3ccc(O)cc3)c2)C(O)C(O)C1O (stereo not drawn) [Resveratrol 3-O-glucuronide] | LC retention time [4]: 11 min |
|  |  | 4.64 min | O=C(O)C1OC(Oc2ccc(C=Cc3cc(O)cc(O)c3)cc2)C(O)C(O)C1O (stereo not drawn) [Resveratrol 4-O-glucuronide] | LC retention time [4]: 9.05 min |
| 0.954 min | 2.44 min | 2.38 min | O=C(O)c1ccc(OS(=O)(=O)O)c(O)c1 [Protocatechuic acid-4-O-sulfate] |  |
| 2 min | 3.82 min | 3.13 min | COc1cc(C(=O)O)ccc1OS(=O)(=O)O [Vanillic acid-4-O-sulfate] |  |
| 1.12 min | 2.8 min | 1.44 min | O=C(O)c1ccc(O)c(OC2OC(C(=O)O)C(O)C(O)C2O)c1 (stereo not drawn) [Protocatechuic acid-3-O-glucuronide] |  |
|  |  | 1.03 min | O=C(O)c1ccc(OC2OC(C(=O)O)C(O)C(O)C2O)c(O)c1 (stereo not drawn) [Protocatechuic acid-4-glucuronide] |  |
|  |  | 4.68 min | O=c1oc2c(O)c(O)ccc2c2cc(O)c(O)cc12 [Urolithin  D] | LC retention time [4]: 8.24 min |
|  |  | 5.89 min | O=S(=O)(O)Oc1cc(O)cc(C=Cc2ccc(O)cc2)c1 [Resveratrol 3-O-sulfate] | LC retention time [4]: 8.93 min |
|  |  | 5.23 min | O=C(O)C1OC(Oc2ccc3c(c2)oc(=O)c2ccccc23)C(O)C(O)C1O (stereo not drawn) [Urolithin B-3-O-glucuronide] | LC retention time [4]: 11.6 min |
|  |  | 5.11 min | O=c1oc2cc(O)ccc2c2cc(O)c(O)cc12 [Urolithin C] | LC retention time [4]: 10.3 min |
